The results in this text go back to publication PMC7777204, “Locking mixed-lineage kinase domain-like protein in its auto-inhibited state prevents necroptosis” (Proceedings of the National Academy of Sciences of the …, 2020).

The subject of one assay is Jurkat FADD−/− cells. In words: Jurkat FADD−/− cytotox assay. To be noted: Homo sapiens, without huTNFα, Cell Titer Glo viability, read-out: Jurkat TOX IC50. It counts as cell-based. Here is the method:
(§1) For the Jurkat FADD^−/− Necroptosis assay, compounds were serially diluted in 100% dimethyl sulfoxide (DMSO) (Sigma-Aldrich catalog no. 41641), and 250 nL was transferred to a sterile 384-well microtiter plate (PerkinElmer catalog no. 6007688) via Echo liquid handler (LABCYTE). Five thousand Jurkat FADD ^−/− cells (ATCC catalog no. CRL-2572) in 20 µL of modified Roswell Park Memorial Institute medium (Gibco catalog no. 10491), 10% fetal calf serum (Gibco catalog no. 100500), 1x Anti/Anti (Gibco catalog no. 15240-062), 1x L-Glutamax (Gibco catalog no. 35050-087), and 1% PenStrep (SIGMA catalog no. P4333) were seeded into each well of the prepared assay plate with compound. Cells and compounds were incubated for 30 min at 37 °C (humidified incubator with 5% CO2). After incubation, 5 µL of recombinant human TNFα (huTNFα) (Biotrend catalog no. cyt-223; 10 ng/mL final concentration [f.c.]) was added to the cells, followed by an incubation of 24 h at 37 °C. Following the incubation, the experimental plates were equilibrated to room temperature (30 min) before 25 µL of Cell Titer Glo Luminescent Cell Viability Assay System reagent (Promega catalog no. G7571) was added to the plate wells, incubated at room temperature for ∼10 min. After incubation, the samples were analyzed for luminescence by using an Envision reader (PerkinElmer).
MLKL antagonists were tested in cytotox assays by using Jurkat FADD^−/− and U937 cells according to the assay procedures described for the necroptosis assays, but without treatment with recombinant huTNFα and/or zVAD-fmk. High controls (100% CTL, no effect) were defined as cells treated with DMSO, and low controls (0% CTL) were defined as medium without cells (0% CTL, maximal effect).
(§2) All cellular assays were done for Cpd 1, Cpd 2, Cpd 3, Cpd 4, and Cpd 5 in duplicate and in quadruplet for NSA.
A general note: ATP-based viability assays read luminescence as a measure of living cells.

Another assay has as its target T1, MLKL executioner domain (Homo sapiens, UniProt Q8NB16).
T1 construct: 80 µM MLKL N-terminal executioner domain (residues 1 to 154) was used; GST (thrombin cleavage site) (cleaved yes)
T1 sequence (Q8NB16 1-154): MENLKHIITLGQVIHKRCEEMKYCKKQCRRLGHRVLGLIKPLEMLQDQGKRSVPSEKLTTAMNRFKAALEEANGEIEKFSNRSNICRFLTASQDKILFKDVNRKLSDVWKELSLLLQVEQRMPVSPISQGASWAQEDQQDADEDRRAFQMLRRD
The assay is described as follows: Real-time NMR of MLKL oligomerization. To be noted: after 48 h, 50 µM IP6, 12 mM NM, 500 µM Cpd 3, 300 µM MLKL, 298 K. It counts as biochemical. The method, then:
While MLKL was stable in the presence of either 500 µM IP6 or 12 mM NM (SI Appendix, Fig. S13), dispersed peaks were disappearing over time in the presence of the combination of the two. Monitoring this decay by real-time NMR, a series of ^1H,^15N-correlation spectra were recorded in the presence of 12 mM NM and 50 µM IP6. The latter concentration was reduced to slow down the process to enable real-time NMR detection, because at 500 µM IP6 concentration, 86% activation could be observed in the functional assay in the ^1H,^15N-correlation spectrum measured directly after sample preparation. The loss of peak intensity can be fitted with a biexponential decay with a fast time constant (Tf) of 0.35 ± 0.07 h and a slow time constant (Ts) of 10.0 ± 1.0 h. […] In addition to the known peaks reporting on the active state with α-helix 6 being detached (Ala141 N,H and Trp133 Nε1,Hε1), peaks in the random coil region of the spectrum appeared (Fig. 4A). […] Secondary chemical shifts confirmed that α-helix 6 becomes largely unfolded and has, according to ^15N-relaxation data, increased mobility (τC = 10 ns) and reduced rigidity (heteronuclear NOE around zero) in the activated state (SI Appendix, Fig. S10).
After 48 h, these signals decayed only to ∼70% intensity. Cross-peaks reporting on the unfolded, detached α-helix 6 likewise appeared more slowly in the presence of Cpd 3 (Fig. 4 B–D). […]

A further assay concerns U937 cells. In words: U937 necroptosis assay. The assay is classed as cell-based. The conditions noted are these: Homo sapiens, U-937, huTNFα plus 10 µM zVAD-fmk, read-out: U937 NEC IC50. Here is the method: as §1
Each assay plate contained wells with “high” and “low” controls. High controls (100% CTL) were defined as cells treated with DMSO, and low controls (0% CTL) were defined as cells treated with 10 ng/mL recombinant huTNFα. IC50 values were calculated based on the percentage of control values using a four-parameter-fitting model.
MLKL antagonists were also evaluated in a necroptosis assay with U937 cells ([26]) (ATCC catalog no. CRL-1593.2). The assay procedure with U937 cells was as described for the Jurakt FADD^−/− necroptosis assay with the following modifications: 8,000 cells were seeded per well, and, in addition to the recombinant huTNFα, cells were also incubated in the presence of 10 µM (f.c.) carbobenzoxy-valyl-alanyl-aspartyl-[O-methyl]-fluoromethylketone (zVAD-fmk) (Enzo Life Sciences catalog no. ALX-260-020). Low controls (0% CTL) were defined as cells treated with 100 ng/mL recombinant huTNFα plus 10 µM zVAD-fmk.
as §2

SMILES strings stand for the structures.

For the compound `Cn1c(=O)c2c(nc(S(C)(=O)=O)n2C)n(CC#Cc2cccc(O)c2)c1=O` [Cpd 3], the IC50 with Jurkat FADD−/− cells amounted to 13.6 µM; with U937 cells, 0.271 µM. Moreover, the “Remaining intensity of dispersed signals” value on MLKL executioner domain is reported as roughly 70%.

By IC50 is commonly meant the concentration at which inhibition is half-maximal.
